In a flash point compilation (Sun et al. 2020) one finds flash point data, which are given here for 93 molecules.

Structures can show the parent of a compound that is named as a salt.

`CC(=O)Cl` [acetyl chloride] gave a flash point of 4.00 °C.

`CC(=O)OOC(C)=O` [acetyl ethaneperoxoate] gave a flash point of 45.00 °C.

For `C#C` [acetylene], the flash point was -18.00 °C.

With `CC(=O)[O][Hg][c]1ccccc1` [acetyloxy(phenyl)mercury], the flash point came out at 60.00 °C.

Regarding `Nc1ccccc1` [aniline], the flash point was determined as 70.00 °C.

`COc1ccccc1` [anisole] returned a flash point of 52.00 °C.

The molecule `O=Cc1ccccc1` [benzaldehyde] came in with a flash point of 64.00 °C.

The molecule `N#Cc1ccccc1C#N` [benzene-1,2-dicarbonitrile] displayed a flash point of 162.00 °C.

`Oc1cccc(O)c1` [benzene-1,3-diol] returned a flash point of 127.00 °C.

Molecule `Nc1ccc(N)cc1` [benzene-1,4-diamine] showed a flash point of 155.00 °C.

Molecule `O=C(Cl)c1ccc(C(=O)Cl)cc1` [benzene-1,4-dicarbonyl chloride] had a flash point of 180.00 °C.

With `Oc1ccc(O)cc1` [benzene-1,4-diol], the flash point amounted to 165.00 °C.

On to `c1ccccc1` [benzene], for which the flash point was -11.00 °C.

For `Sc1ccccc1` [benzenethiol], the flash point came to 53.00 °C.

For the molecule `c1ccc2c(c1)ccc1ncccc12` [benzo[f]quinoline], the flash point came out at 166.00 °C.

The molecule `N#Cc1ccccc1` [benzonitrile] showed a flash point of 72.00 °C.

Consider `CC(=O)OCc1ccccc1` [benzyl acetate], for which the flash point worked out at 91.00 °C.

Regarding `O=C(OCc1ccccc1)c1ccccc1` [benzyl benzoate], the flash point stood at 148.00 °C.

`CCCCC(CC)COC(=O)c1ccc(C(=O)OCC(CC)CCCC)cc1` (stereo not drawn) [bis(2-ethylhexyl) benzene-1,4-dicarboxylate] yielded a flash point of 238.00 °C.

For `CCCCC(CC)COC(=O)CCCCCCCCC(=O)OCC(CC)CCCC` (stereo not drawn) [bis(2-ethylhexyl) decanedioate], the flash point was found to be 210.00 °C.

As to `CCCCC(CC)COC(=O)CCCCC(=O)OCC(CC)CCCC` (stereo not drawn) [bis(2-ethylhexyl) hexanedioate], the flash point came out at 196.00 °C.

For the molecule `CC(C)CCCCCOC(=O)c1ccccc1C(=O)OCCCCCC(C)C` [bis(6-methylheptyl) benzene-1,2-dicarboxylate], the flash point came out at 232.00 °C.

`CC(C)CCCCCCOC(=O)C1CCCCC1C(=O)OCCCCCCC(C)C` (stereo not drawn) [bis(7-methyloctyl) cyclohexane-1,2-dicarboxylate] displayed a flash point of 224.00 °C.

As to `CC(C)CCCCCCCOC(=O)c1ccccc1C(=O)OCCCCCCCC(C)C` [bis(8-methylnonyl) benzene-1,2-dicarboxylate], the flash point worked out at 232.00 °C.

As to `CC(=O)C=C=O` [but-1-ene-1,3-dione], the flash point came out at 33.00 °C.

In the case of `OC=CCCO` [but-1-ene-1,4-diol], the flash point stood at 128.00 °C.

For the molecule `C=CCC` [but-1-ene], the flash point was -79.00 °C.

`OCC=CCO` [but-2-ene-1,4-diol] displayed a flash point of 128.00 °C.

`CC=CC(=O)O` [but-2-enoic acid]: the flash point stood at 88.00 °C.

Molecule `C=CC(C)=O` [but-3-en-2-one] gave a flash point of -7.00 °C.

For the molecule `C=CC=C` [buta-1,3-diene], the flash point was -76.00 °C.

As to `CCCCO.CCCCO.CCCCO.CCCCO.[Ti]` [butan-1-ol;titanium], the flash point was 77.00 °C.

On to `CCC(C)N` (stereo not drawn) [butan-2-amine], for which the flash point is -9.00 °C.

In the case of `CCC(C)=O` [butan-2-one], the flash point was -3.00 °C.

Molecule `CCC(C)OC(C)=O` (stereo not drawn) [butan-2-yl acetate] came in with a flash point of 17.00 °C.

`CCC(C)c1ccccc1` (stereo not drawn) [butan-2-ylbenzene] gave a flash point of 52.00 °C.

Regarding `CC(N)CCN` (stereo not drawn) [butane-1,3-diamine], the flash point stood at 52.00 °C.

`OCCCCO` [butane-1,4-diol] yielded a flash point of 119.00 °C.

Molecule `CCCCS` [butane-1-thiol] showed a flash point of 13.00 °C.

`CC(=O)C(C)=O` [butane-2,3-dione]: the flash point was found to be 27.00 °C.

Molecule `N#CCCC#N` [butanedinitrile] gave a flash point of 132.00 °C.

In turn, `O=C(O)CCC(=O)O` [butanedioic acid] came in with a flash point of 160.00 °C.

Turning to `CCCC(=O)Cl` [butanoyl chloride], the flash point amounted to 22.00 °C.

For `CCCCOC(=O)C(C)O` (stereo not drawn) [butyl 2-hydroxypropanoate], the flash point came to 71.00 °C.

In turn, `CCCCOC(=O)CC(C)C` [butyl 3-methylbutanoate] had a flash point of 53.00 °C.

Molecule `CCCCCCCC/C=C\CCCCCCCC(=O)OCCCC` [butyl (Z)-octadec-9-enoate] yielded a flash point of 180.00 °C.

With `CCCCOC(C)=O` [butyl acetate], the flash point was 22.00 °C.

`CCCCOC(=O)c1ccccc1` [butyl benzoate] came in with a flash point of 107.00 °C.

With `CCCCOC=O` [butyl formate], the flash point came to 18.00 °C.

In the case of `C=CC(=O)OCCCC` [butyl prop-2-enoate], the flash point was determined as 49.00 °C.

Take `CCCCOC(=O)CC` [butyl propanoate]: the flash point was 38.00 °C.

`CCCCc1ccccc1` [butylbenzene] returned a flash point of 71.00 °C.

Turning to `C[Si](C)(C)Cl` [chloro(trimethyl)silane], the flash point is -18.00 °C.

`ClC1CCCCC1` [chlorocyclohexane]: the flash point is 32.00 °C.

Consider `CCCl` [chloroethane], for which the flash point was -50.00 °C.

Take `C=CCl` [chloroethene]: the flash point was -79.00 °C.

As to `ClCc1ccccc1` [chloromethylbenzene], the flash point worked out at 67.00 °C.

`O=c1ccc2ccccc2o1` [chromen-2-one] showed a flash point of 151.00 °C.

As for `CC(C)c1ccccc1` [cumene], the flash point was determined as 36.00 °C.

Consider `N#CN` [cyanamide], for which the flash point stood at 141.00 °C.

For the molecule `C1=CCCC=CCCC=CCC1` [cyclododeca-1,5,9-triene], the flash point turned out to be 71.00 °C.

`C1=CCCC=C1` [cyclohexa-1,3-diene]: the flash point is 26.00 °C.

For the molecule `SC1CCCCC1` [cyclohexanethiol], the flash point was found to be 43.00 °C.

For the molecule `O=C1CCCCC1` [cyclohexanone], the flash point is 44.00 °C.

The molecule `C1=CCCCC1` [cyclohexene] displayed a flash point of -12.00 °C.

In the case of `[Ni+2].c1cc[cH-]c1.c1cc[cH-]c1` [cyclopenta-1,3-diene;nickel(2+)], the flash point was determined as 4.00 °C.

The molecule `C=CCCCCCCCC` [dec-1-ene] returned a flash point of 53.00 °C.

As for `CCCCCCCCCC=O` [decanal], the flash point came out at 85.00 °C.

The molecule `CCCCCCCCCCS` [decane-1-thiol] registered a flash point of 98.00 °C.

In turn, `O=C(O)CCCCCCCCC(=O)O` [decanedioic acid] had a flash point of 220.00 °C.

As for `CCCCCCCCCC(=O)O` [decanoic acid], the flash point stood at 113.00 °C.

Molecule `CCCCCCCCCCc1ccccc1` [decylbenzene] yielded a flash point of 107.00 °C.

`CCCCOC(=O)c1ccccc1C(=O)OCCCC` [dibutyl benzene-1,2-dicarboxylate] showed a flash point of 157.00 °C.

The molecule `CCCCOC(=O)CCCCCCCCC(=O)OCCCC` [dibutyl decanedioate] came in with a flash point of 178.00 °C.

Regarding `CCCCOC(=O)CCCCC(=O)OCCCC` [dibutyl hexanedioate], the flash point was found to be 113.00 °C.

For the molecule `CCCCOP(=O)(O)OCCCC` [dibutyl hydrogen phosphate], the flash point was 188.00 °C.

In turn, `CCC[CH2][Sn]([Cl])([Cl])[CH2]CCC` [dibutyl(dichloro)stannane] gave a flash point of 168.00 °C.

In turn, `Cl[Si](Cl)(c1ccccc1)c1ccccc1` [dichloro(diphenyl)silane] displayed a flash point of 142.00 °C.

In turn, `CCCCCCCCCCCCCCCCCC(=O)O.O.[Cl][Cr][Cl].[Cl][Cr][Cl]` [dichlorochromium;octadecanoic acid;hydrate] showed a flash point of 2.00 °C.

With `CCCCCCCCCCOC(=O)c1ccccc1C(=O)OCCCCCCCCCC` [didecyl benzene-1,2-dicarboxylate], the flash point is 232.00 °C.

`CCOC(=O)CC(=O)OCC` [diethyl propanedioate]: the flash point amounted to 93.00 °C.

The molecule `CCCCCCOC(=O)c1ccccc1C(=O)OCCCCCC` [dihexyl benzene-1,2-dicarboxylate] gave a flash point of 177.00 °C.

In turn, `CCCCCCOC(=O)CCCCC(=O)OCCCCCC` [dihexyl hexanedioate] displayed a flash point of 163.00 °C.

Consider `CCCCCCOC(=O)CCCCCCCC(=O)OCCCCCC` [dihexyl nonanedioate], for which the flash point is 204.00 °C.

Turning to `COC(=O)c1ccccc1C(=O)OC` [dimethyl benzene-1,2-dicarboxylate], the flash point turned out to be 146.00 °C.

For `COC(=O)c1cccc(C(=O)OC)c1` [dimethyl benzene-1,3-dicarboxylate], the flash point came to 138.00 °C.

`COC(=O)c1ccc(C(=O)OC)cc1` [dimethyl benzene-1,4-dicarboxylate] had a flash point of 153.00 °C.

Molecule `COC(=O)CCCCC(=O)OC` [dimethyl hexanedioate] displayed a flash point of 107.00 °C.

On to `[CH3][Hg][CH3]` [dimethylmercury], for which the flash point amounted to 5.00 °C.

Consider `CCCCCCCCCOC(=O)c1ccccc1C(=O)OCCCCCCCCC` [dinonyl benzene-1,2-dicarboxylate], for which the flash point was 216.00 °C.

Turning to `CCCCCCCCOC(=O)CCCCC(=O)OCCCCCCCC` [dioctyl hexanedioate], the flash point was 196.00 °C.

`CCCCCOC(=O)c1ccccc1C(=O)OCCCCC` [dipentyl benzene-1,2-dicarboxylate] showed a flash point of 181.00 °C.

`CCCOC(=O)c1ccc(C(=O)OCCC)nc1` [dipropyl pyridine-2,5-dicarboxylate] showed a flash point of 93.00 °C.
